The text below walks through data of patent US10004701B2, “Methods and compositions for treating infection” (UNIVERSITY OF ROCHESTER, priority 2012, dated 2018).

Like-named read-outs stand apart in the source and are kept apart here.

Common to all, as to assay: AK assay 384-well format, Prestwick library screening
In one assay the test system is E. cloacae. In kind it is cell-based, Enterobacter cloacae. The settings on record: for AK-based Prestwick Library Screening Results, E. cloacae (fold increase in extracellular AK activity) / fold induction at 50 µM: planktonic; for fold induction at 50 µM: Enterobacter cloacae, 3 h, read-out: AK-based Prestwick Library Screening Results, E. cloacae (fold increase in extracellular AK activity).

Another assay relates to K. pneumoniae. It counts as cell-based, Klebsiella pneumoniae. The settings on record: for AK-based Prestwick Library Screening Results, K. pneumoniae (fold increase in extracellular AK activity) / fold induction at 50 µM: planktonic; for fold induction at 50 µM: Klebsiella pneumoniae, 3 h, read-out: AK-based Prestwick Library Screening Results, K. pneumoniae (fold increase in extracellular AK activity).

Assay [1] deals with S. aureus strain USA300-0114. In kind it is cell-based, Staphylococcus aureus. As to conditions: for AK-based Prestwick Library Screening Results, S. aureus (fold increase in extracellular AK activity) / fold induction at 50 µM: planktonic; for fold induction at 50 µM: Staphylococcus aureus, USA300, 3 h, read-out: AK-based Prestwick Library Screening Results, S. aureus (fold increase in extracellular AK activity).

For the next assay, the system named is E. faecium. It counts as cell-based, Enterococcus faecium. The settings on record: for AK-based Prestwick Library Screening Results, E. faecium (fold increase in extracellular AK activity) / fold induction at 50 µM: planktonic; for fold induction at 50 µM: Enterococcus faecium, 3 h, read-out: AK-based Prestwick Library Screening Results, E. faecium (fold increase in extracellular AK activity).

The next assay relates to E. coli. It counts as cell-based, Escherichia coli. The settings on record: for AK-based Prestwick Library Screening Results, E. coli (fold increase in extracellular AK activity) / fold induction at 50 µM: planktonic; for fold induction at 50 µM: Escherichia coli, 3 h, read-out: AK-based Prestwick Library Screening Results, E. coli (fold increase in extracellular AK activity).

The test system of assay [2] is A. baumannii strain 98-37-09. In kind it is cell-based, Acinetobacter baumannii. The settings on record: for AK-based Prestwick Library Screening Results, A. baumannii (fold increase in extracellular AK activity) / fold induction at 50 µM: planktonic; for fold induction at 50 µM: Acinetobacter baumannii, 983709, 3 h, read-out: AK-based Prestwick Library Screening Results, A. baumannii (fold increase in extracellular AK activity).

A further assay relates to P. aeruginosa. In kind it is cell-based, Pseudomonas aeruginosa. As to conditions: for AK-based Prestwick Library Screening Results, P. aeruginosa (fold increase in extracellular AK activity) / fold induction at 50 µM: planktonic; for fold induction at 50 µM: Pseudomonas aeruginosa, 3 h, read-out: AK-based Prestwick Library Screening Results, P. aeruginosa (fold increase in extracellular AK activity).

Where [3] appears, read: 50 μM final drug concentration, cutoff for positive 3-fold increase.
Where [4] appears, read: 50 μM final drug concentration, cutoff for positive-scoring molecules 3-fold increase.
[5] abbreviates: 50 μM final drug concentration, […].

Take `CNCCc1ccccn1.CS(=O)(=O)O.CS(=O)(=O)O` [Betahistine mesylate]: the “AK-based Prestwick Library Screening Results, E. cloacae (fold increase in extracellular AK activity)” value with E. cloacae (setting [3]) is 1.3. For the same compound, in the assay with K. pneumoniae (setting [3]), the “AK-based Prestwick Library Screening Results, K. pneumoniae (fold increase in extracellular AK activity)” value is 1.1. In assay [1] (setting [3]), the “AK-based Prestwick Library Screening Results, S. aureus (fold increase in extracellular AK activity)” value was determined as 0.9. Also, the “AK-based Prestwick Library Screening Results, E. faecium (fold increase in extracellular AK activity)” value in the assay with E. faecium (setting [3]) was 0.9. Besides, in the assay on E. coli (setting [3]), the “AK-based Prestwick Library Screening Results, E. coli (fold increase in extracellular AK activity)” value stood at 1.4. Besides, the “AK-based Prestwick Library Screening Results, A. baumannii (fold increase in extracellular AK activity)” value in assay [2] (setting [3]) came out at 1.2. Moreover, the “AK-based Prestwick Library Screening Results, P. aeruginosa (fold increase in extracellular AK activity)” value with P. aeruginosa (setting [3]) is 1.1.

Consider `Nc1ccc(C(=O)NCC(=O)O)cc1` [Aminohippuric acid], for which the fold induction at 50 µM was 0.8 in the assay with E. cloacae (setting [4]); 0.6 with K. pneumoniae (setting [4]); 0.6 in assay [1] (setting [4]); 0.9 in the assay with E. faecium (setting [4]); 0.7 with E. coli (setting [4]); 0.7 in assay [2] (setting [4]). For the same compound, the fold induction at 50 µM in the assay with P. aeruginosa (setting [4]) turned out to be 0.7.

Turning to `CO[C@@]1(NC(=O)C2SC(=C(C(N)=O)C(=O)O)S2)C(=O)N2C(C(=O)O)=C(CSc3nnnn3C)CS[C@@H]21` (some centres unmarked) [Cefotetan], the fold induction at 50 µM was 25.3 in the assay on E. cloacae (setting [3]); 8.4 in the assay on K. pneumoniae (setting [3]); 2.5 in assay [1] (setting [3]); 1.2 in the assay on E. faecium (setting [3]); 22.1 in the assay with E. coli (setting [3]); 2 in assay [2] (setting [3]). Further, in the assay with P. aeruginosa (setting [3]), the fold induction at 50 µM was 1.2.

For the compound `Cc1c(Cl)cccc1Nc1ncccc1C(=O)O.NCCCC[C@H](N)C(=O)O` [Clonixin Lysinate], the “AK-based Prestwick library screening result, E. cloacae (fold increase in extracellular AK activity)” value in the assay on E. cloacae came to 1.5. In addition, the “AK-based Prestwick library screening result, K. pneumoniae (fold increase in extracellular AK activity)” value in the assay on K. pneumoniae came out at 1.1. Also, the “AK-based Prestwick library screening result, S. aureus (fold increase in extracellular AK activity)” value in assay [1] was determined as 1.2. For the same compound, the “AK-based Prestwick library screening result, E. faecium (fold increase in extracellular AK activity)” value with E. faecium came to 0.9. Also, in the assay with E. coli, the “AK-based Prestwick library screening result, E. coli (fold increase in extracellular AK activity)” value is on record as 1.0. Moreover, in assay [2], the “AK-based Prestwick library screening result, A. baumannii (fold increase in extracellular AK activity)” value was determined as 1.4. In the assay on P. aeruginosa, the “AK-based Prestwick library screening result, P. aeruginosa (fold increase in extracellular AK activity)” value came to 1.0.

Regarding `C=C[C@H]1CN2CC[C@H]1C[C@H]2[C@H](O)c1ccnc2ccccc12` [(−)-Cinchonidine], the “AK-based Prestwick Library Screening Results, E. cloacae (fold increase in extracellular AK activity)” value in the assay on E. cloacae (setting [3]) is 1.6. For the same compound, the “AK-based Prestwick Library Screening Results, K. pneumoniae (fold increase in extracellular AK activity)” value in the assay on K. pneumoniae (setting [3]) stood at 0.8. Further, in assay [1] (setting [3]), the “AK-based Prestwick Library Screening Results, S. aureus (fold increase in extracellular AK activity)” value was found to be 0.9. In addition, the “AK-based Prestwick Library Screening Results, E. faecium (fold increase in extracellular AK activity)” value with E. faecium (setting [3]) was found to be 1.0. For the same compound, the “AK-based Prestwick Library Screening Results, E. coli (fold increase in extracellular AK activity)” value in the assay with E. coli (setting [3]) is on record as 1.3. Further, the “AK-based Prestwick Library Screening Results, A. baumannii (fold increase in extracellular AK activity)” value in assay [2] (setting [3]) is listed as 1.1. In addition, the “AK-based Prestwick Library Screening Results, P. aeruginosa (fold increase in extracellular AK activity)” value in the assay with P. aeruginosa (setting [3]) came to 1.1.

As for `CC(C)NCC(O)c1cc(O)cc(O)c1.CC(C)NCC(O)c1cc(O)cc(O)c1.O=S(=O)(O)O` (centres unmarked), the “AK-based Prestwick Library Screening Results, E. cloacae (increase in extracellular AK activity)” value in the assay on E. cloacae (planktonic E. cloacae, 50 μM final drug concentration, cutoff for positive-scoring molecules 3-fold increase) amounted to 1.0. The “AK-based Prestwick Library Screening Results, K. pneumoniae (increase in extracellular AK activity)” value in the assay with K. pneumoniae (planktonic K. pneumoniae, 50 μM final drug concentration, cutoff for positive-scoring molecules 3-fold increase) was determined as 0.7. In addition, in assay [1] (planktonic S. aureus, 50 μM final drug concentration, cutoff for positive-scoring molecules 3-fold increase), the “AK-based Prestwick Library Screening Results, S. aureus (increase in extracellular AK activity)” value was 0.6. Moreover, in the assay with E. faecium (planktonic E. faecium, 50 μM final drug concentration, cutoff for positive-scoring molecules 3-fold increase), the “AK-based Prestwick Library Screening Results, E. faecium (increase in extracellular AK activity)” value was found to be 0.9. For the same compound, the “AK-based Prestwick Library Screening Results, E. coli (increase in extracellular AK activity)” value with E. coli (planktonic E. coli, 50 μM final drug concentration, cutoff for positive-scoring molecules 3-fold increase) is 1.0. Further, the “AK-based Prestwick Library Screening Results, A. baumannii (increase in extracellular AK activity)” value in assay [2] (planktonic A. baumannii, 50 μM final drug concentration, cutoff for positive-scoring molecules 3-fold increase) is on record as 0.9. For the same compound, the “AK-based Prestwick Library Screening Results, P. aeruginosa (increase in extracellular AK activity)” value in the assay on P. aeruginosa (planktonic P. aeruginosa, 50 μM final drug concentration, cutoff for positive-scoring molecules 3-fold increase) is reported as 0.9.

Take `COc1c(O[C@@H]2O[C@H](CO)[C@@H](O)[C@H](O)[C@H]2O)cc2c(c1OC)-c1ccc(SC)c(=O)cc1[C@@H](NC(C)=O)CC2` [Thiocolchicoside]: the fold induction at 50 µM was found to be 1.7 in the assay on E. cloacae (setting [5]); 0.8 in the assay on K. pneumoniae (setting [5]); 1.2 in assay [1] (setting [5]); 1.1 in the assay with E. faecium (setting [5]); 1 in the assay on E. coli (setting [5]); 0.9 in assay [2] (setting [5]). Besides, in the assay with P. aeruginosa (setting [5]), the fold induction at 50 µM was 1.

For the compound `CCCCC[C@H](O)/C=C/[C@@H]1[C@@H](C/C=C\CCCC(=O)O)[C@@H](O)C[C@H]1O` [Dinoprost trometamol], the fold induction at 50 µM in the assay with E. cloacae (setting [3]) was 1.1; in the assay on K. pneumoniae (setting [3]), 1; in assay [1] (setting [3]), 1.4; with E. faecium (setting [3]), 1; in the assay with E. coli (setting [3]), 1; in assay [2] (setting [3]), 1.2. In addition, the fold induction at 50 µM in the assay on P. aeruginosa (setting [3]) is 1.

Consider `CC(=O)/N=c1/sc(S(N)(=O)=O)nn1C` [Methazolamide], for which the fold induction at 50 µM in the assay with E. cloacae (setting [4]) turned out to be 0.7; with K. pneumoniae (setting [4]) it was 0.5; in assay [1] (setting [4]), 0.6; in the assay with E. faecium (setting [4]) it was 1.5; in the assay with E. coli (setting [4]), 0.5; in assay [2] (setting [4]), 0.5. Also, in the assay with P. aeruginosa (setting [4]), the fold induction at 50 µM turned out to be 0.6.

As to `COc1ccc2cc(CCC(C)=O)ccc2c1` [Nabumetone], the fold induction at 50 µM turned out to be 1 in the assay on E. cloacae (setting [4]); 0.5 with K. pneumoniae (setting [4]); 0.4 in assay [1] (setting [4]); 0.4 in the assay with E. faecium (setting [4]); 0.5 in the assay with E. coli (setting [4]); 0.4 in assay [2] (setting [4]). Besides, in the assay on P. aeruginosa (setting [4]), the fold induction at 50 µM was 0.6.

Regarding `CC(C)(Sc1cc(C(C)(C)C)c(O)c(C(C)(C)C)c1)Sc1cc(C(C)(C)C)c(O)c(C(C)(C)C)c1` [Probucol], the fold induction at 50 µM was 1.3 in the assay with E. cloacae (setting [3]); 0.9 in the assay with K. pneumoniae (setting [3]); 0.6 in assay [1] (setting [3]); 0.9 with E. faecium (setting [3]); 1.1 with E. coli (setting [3]); 1.4 in assay [2] (setting [3]). The fold induction at 50 µM in the assay on P. aeruginosa (setting [3]) was found to be 1.1.
